Measurements published in PubChem BioAssay AID248 (DTP/NCI, 2004).
“And” between values parts separate entries of the source, which are not always exact repeats. Identical values can stand only once. Inconclusive results and toxic doses are left out. No stated cut-off is given here; in the data, active means T/C of 150% or more; inactive means T/C below 125%.

Tested on: L1210 leukemia ip in BDF1 mice, survival T/C
Assay: NCI In Vivo Anticancer Drug Screen. Data for tumor model L1210 Leukemia (intraperitoneal) in B6D2F1 (BDF1) mice
Settings: endpoint: mean survival time, higher = longer survival
Procedure, shortened: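 Mice bearing the transplanted tumor received compound or vehicle. Survival of the treated group was divided by that of the vehicle-treated control group to give the ratio.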

[1] = dose: 100.0 mg/kg/injection, schedule: Q01DX009 (ip), vehicle: gum acacia
[2] = dose: 100.0 mg/kg/injection, schedule: Q04DX003 (ip), vehicle: gum acacia
[3] = dose: 200.0 mg/kg/injection, schedule: Q04DX003 (ip), vehicle: gum acacia
[4] = dose: 400.0 mg/kg/injection, schedule: Q01DX009 (ip), vehicle: gum acacia
[5] = dose: 400.0 mg/kg/injection, schedule: Q04DX003 (ip), vehicle: gum acacia
[6] = dose: 50.0 mg/kg/injection, schedule: Q01DX001 (ip), vehicle: carboxymethylcellulose (CMC)
[7] = dose: 100.0 mg/kg/injection, schedule: Q01DX001 (ip), vehicle: carboxymethylcellulose (CMC)
[8] = dose: 100.0 mg/kg/injection, schedule: Q04DX003 (ip), vehicle: saline with Tween-80
[9] = dose: 200.0 mg/kg/injection, schedule: Q01DX001 (ip), vehicle: carboxymethylcellulose (CMC)
[10] = dose: 200.0 mg/kg/injection, schedule: Q04DX003 (ip), vehicle: saline with Tween-80
[11] = dose: 400.0 mg/kg/injection, schedule: Q01DX001 (ip), vehicle: carboxymethylcellulose (CMC)
[12] = dose: 400.0 mg/kg/injection, schedule: Q04DX003 (ip), vehicle: saline with Tween-80
[13] = dose: 100.0 mg/kg/injection, schedule: Q01DX001 (ip), vehicle: saline
[14] = dose: 200.0 mg/kg/injection, schedule: Q01DX001 (ip), vehicle: saline
[15] = dose: 400.0 mg/kg/injection, schedule: Q01DX001 (ip), vehicle: saline
[16] = dose: 200.0 mg/kg/injection, schedule: Q04DX003 (ip), vehicle: saline
[17] = dose: 400.0 mg/kg/injection, schedule: Q04DX003 (ip), vehicle: saline
[18] = dose: 100.0 mg/kg/injection, schedule: Q04DX002 (ip), vehicle: Klucel (hydroxypropylcellulose) (HPC)
[19] = dose: 200.0 mg/kg/injection, schedule: Q04DX002 (ip), vehicle: Klucel (hydroxypropylcellulose) (HPC)
[20] = dose: 400.0 mg/kg/injection, schedule: Q04DX002 (ip), vehicle: Klucel (hydroxypropylcellulose) (HPC)

Measured: T/C

Cc1cc(=O)[nH]c(N/N=C/c2ccccc2)n1
inactive: [1] 88 % of control | [2] 93 % of control | [3] 97 % of control | [4] 91 % of control | [5] 93 % of control

O=C(C(=O)c1ccc(Cl)cc1)c1ccc(Cl)cc1
inactive: dose: 1.56 mg/kg/injection, schedule: Q01DX009 (ip), vehicle: other 106 % of control | dose: 3.13 mg/kg/injection, schedule: Q01DX009 (ip), vehicle: other 95 % of control | dose: 6.25 mg/kg/injection, schedule: Q01DX009 (ip), vehicle: other 97 % of control and 92 % of control | dose: 25.0 mg/kg/injection, schedule: Q01DX009 (ip), vehicle: other 88 % of control | [6] 94 % of control | [7] 94 % of control | [8] 86 % of control | [9] 89 % of control | [10] 88 % of control | [11] 92 % of control | [12] 88 % of control

COC(=O)c1ccccc1NC(=O)Nc1cc([N+](=O)[O-])ccc1OC
inactive: dose: 50.0 mg/kg/injection, schedule: Q01DX009 (ip), vehicle: Klucel (hydroxypropylcellulose) (HPC) 90 % of control | dose: 100.0 mg/kg/injection, schedule: Q01DX009 (ip), vehicle: Klucel (hydroxypropylcellulose) (HPC) 97 % of control | dose: 200.0 mg/kg/injection, schedule: Q01DX009 (ip), vehicle: Klucel (hydroxypropylcellulose) (HPC) 108 % of control

COc1cc(Br)c(NC(C)=O)cc1OC
inactive: [13] 98 % of control | [14] 108 % of control | [15] 96 % of control

CC1CN=C(c2ccc([N+](=O)[O-])cc2)S1 (stereo not drawn)
inactive: dose: 100.0 mg/kg/injection, schedule: Q01DX001 (ip), vehicle: Klucel (hydroxypropylcellulose) (HPC) 100 % of control | dose: 200.0 mg/kg/injection, schedule: Q01DX001 (ip), vehicle: Klucel (hydroxypropylcellulose) (HPC) 95 % of control | dose: 400.0 mg/kg/injection, schedule: Q01DX001 (ip), vehicle: Klucel (hydroxypropylcellulose) (HPC) 94 % of control

Nc1ccccc1SC1CC(=O)N(c2ccc(I)cc2)C1=O (stereo not drawn)
inactive: dose: 25.0 mg/kg/injection, schedule: Q04DX003 (ip), vehicle: other 88 % of control | dose: 50.0 mg/kg/injection, schedule: Q04DX003 (ip), vehicle: other 91 % of control | dose: 100.0 mg/kg/injection, schedule: Q01DX009 (ip), vehicle: other 94 % of control | dose: 100.0 mg/kg/injection, schedule: Q04DX003 (ip), vehicle: other 93 % of control | dose: 200.0 mg/kg/injection, schedule: Q01DX009 (ip), vehicle: other 102 % of control | [16] 88 % of control | dose: 400.0 mg/kg/injection, schedule: Q01DX009 (ip), vehicle: other 93 % of control | [17] 86 % of control

CCCCCCC1CC2CCCCC2CC1CCCC (stereo not drawn)
inactive: [7] 96 % of control | [9] 100 % of control | [11] 94 % of control

OC(c1ccc(Cl)cc1)c1nc2ccccc2[nH]1 (stereo not drawn)
inactive: [18] 100 % of control | [19] 100 % of control | [20] 103 % of control

O=c1[nH]cc(CC(F)C(F)(F)F)c(=O)[nH]1 (stereo not drawn)
inactive: dose: 60.0 mg/kg/injection, schedule: Q01DX001 (ip), vehicle: DMSO 91 % of control | dose: 120.0 mg/kg/injection, schedule: Q01DX001 (ip), vehicle: DMSO 105 % of control

N#CCC(c1ccccc1)C(C#N)c1ccccc1 (stereo not drawn)
inactive: dose: 75.0 mg/kg/injection, schedule: Q01DX001 (ip), vehicle: carboxymethylcellulose (CMC) 97 % of control | dose: 150.0 mg/kg/injection, schedule: Q01DX001 (ip), vehicle: carboxymethylcellulose (CMC) 93 % of control

Brc1ccc(N=Nc2ccccc2)cc1
inactive: dose: 100.0 mg/kg/injection, schedule: Q04DX003 (ip), vehicle: Klucel (hydroxypropylcellulose) (HPC) 103 % of control | dose: 200.0 mg/kg/injection, schedule: Q04DX003 (ip), vehicle: Klucel (hydroxypropylcellulose) (HPC) 97 % of control | dose: 400.0 mg/kg/injection, schedule: Q04DX003 (ip), vehicle: Klucel (hydroxypropylcellulose) (HPC) 103 % of control

CCCCC(=O)N/N=C\c1ccc(-c2ccccc2)cc1
inactive: [13] 93 % of control | [14] 96 % of control

NC(CSC(c1ccccc1)c1ccccc1)C(=O)O (stereo not drawn)
inactive: dose: 10.0 mg/kg/injection, schedule: Q01DX015 (ip), vehicle: saline 97 % of control | dose: 20.0 mg/kg/injection, schedule: Q01DX015 (ip), vehicle: saline 91 % of control | dose: 40.0 mg/kg/injection, schedule: Q01DX015 (ip), vehicle: saline 95 % of control | [6] 98 % of control | dose: 79.0 mg/kg/injection, schedule: Q01DX015 (ip), vehicle: saline 92 % of control | [7] 101 % of control | [13] 101 % of control | dose: 158.0 mg/kg/injection, schedule: Q01DX015 (ip), vehicle: saline 95 % of control | [9] 87 % of control | [14] 100 % of control | dose: 316.0 mg/kg/injection, schedule: Q01DX015 (ip), vehicle: saline 98 % of control | [11] 87 % of control | [15] 101 % of control | dose: 632.0 mg/kg/injection, schedule: Q01DX015 (ip), vehicle: saline 97 % of control

CCc1ccccc1NC(=O)Nc1ccc(Cl)cc1
inactive: [1] 96 % of control | [2] 95 % of control | dose: 200.0 mg/kg/injection, schedule: Q01DX009 (ip), vehicle: gum acacia 96 % of control | [3] 98 % of control | [4] 97 % of control | [5] 97 % of control

CC(=O)N/N=C/c1ccc(N(C)C)cc1
inactive: [7] 94 % of control | [9] 94 % of control

COc1cc2c(cc1C(C)C)CCC1C(C)(C#N)CCCC21C (stereo not drawn)
inactive: dose: 100.0 mg/kg/injection, schedule: Q01DX009 (ip), vehicle: saline with Tween-80 96 % of control | [8] 100 % of control | dose: 200.0 mg/kg/injection, schedule: Q01DX009 (ip), vehicle: saline with Tween-80 89 % of control | [10] 96 % of control | dose: 400.0 mg/kg/injection, schedule: Q01DX009 (ip), vehicle: saline with Tween-80 92 % of control | [12] 100 % of control

C=CCNC(=O)c1ccc(C(=O)NCC=C)cc1
inactive: [13] 102 % of control | [14] 102 % of control | [15] 98 % of control

Cc1ccc(OC(C)C(=O)O)c(C)c1 (stereo not drawn)
inactive: [18] 104 % of control | [19] 98 % of control | [20] 95 % of control

CCCOc1cccc(N)c1
inactive: dose: 50.0 mg/kg/injection, schedule: Q01DX001 (ip), vehicle: saline 96 % of control | [13] 91 % of control | [14] 93 % of control

CCOC(=O)C(C)[P+](c1ccccc1)(c1ccccc1)c1ccccc1 (stereo not drawn)
inactive: dose: 1.5 mg/kg/injection, schedule: Q01DX009 (ip), vehicle: saline 108 % of control | dose: 1.5 mg/kg/injection, schedule: Q04DX003 (ip), vehicle: saline 98 % of control | dose: 3.0 mg/kg/injection, schedule: Q01DX009 (ip), vehicle: saline 106 % of control | dose: 3.0 mg/kg/injection, schedule: Q04DX003 (ip), vehicle: saline 108 % of control | dose: 6.0 mg/kg/injection, schedule: Q04DX003 (ip), vehicle: saline 123 % of control

O/N=C/C=N/O.O/N=C/C=N/O.[Cl][Rh][Cl]
inactive: dose: 50.0 mg/kg/injection, schedule: Q01DX009 (ip), vehicle: saline 107 % of control | dose: 50.0 mg/kg/injection, schedule: Q04DX003 (ip), vehicle: saline 100 % of control | dose: 100.0 mg/kg/injection, schedule: Q01DX009 (ip), vehicle: saline 101 % of control | dose: 100.0 mg/kg/injection, schedule: Q04DX003 (ip), vehicle: saline 104 % of control | dose: 200.0 mg/kg/injection, schedule: Q01DX009 (ip), vehicle: saline 95 % of control | [16] 102 % of control | dose: 400.0 mg/kg/injection, schedule: Q01DX009 (ip), vehicle: saline 94 % of control | [17] 98 % of control
